Earlier results, collected in article PMC10814857, “Functional Classification and Interaction Selectivity Landscape of the Human SH3 Domain Superfamily” (Cells, 2024).
Like-named read-outs stand apart in the source and are kept apart here.

Assays:
PLCG1 SH3 domain = conditions: PLCG1, SPR, Table S4; ref [75]; cited from earlier work
Protocol: (§1) page 6: […] […] […] PAK2 […] PXXXPR PXXXPR 1.05 ITC [34] TRSVI ITSN1-2 Synthetic […] Exceptional [W/F][R/W]xSx[A/ 53 ITC [29] peptide G][F/Y][L/V]xGP[ W/L] NCK1-2 N-WASP GP[…] … 147 HSQC [64] VA[…] 199 PLCG1 SOS1 AAPV[…] … 0.20mM SPR [75] AADS[…] 0.40mM AAES[…] 0.70mM AAIA[…] 0.28mM BAIAP2L1 EspFUR45 IPP[…] … 0.5 nM ITC [76] (IRTKS) 9 SORBS2- Synthetic […] Exceptional XRXGXAYLXYVX 38 ITC [29] 1 peptide Synthetic RL[…](L/P) ...

SRC SH3 domain = target: SRC SH3 domain; set-up: method as in 3 sources, one per row (each row's own in cited_ref): ref [23] (a number printed in a supplementary file, which may have a reference list of its own: not looked up in the article's list) ||| ref [62] (a number printed in a supplementary file, which may have a reference list of its own: not looked up in the article's list) ||| ref [17] (a number printed in a supplementary file, which may have a reference list of its own: not looked up in the article's list); conditions: FL, cited from earlier work
NCK1-1 SH3 domain = conditions: NCK1-1, HSQC, Table S4; ref [64]; cited from earlier work
GRAP2-2 SH3 domain = conditions: GRAP2-2, ITC, Table S4, cited from earlier work
Protocol: as §1

ABL1 SH3 domain = target: ABL1 SH3 domain; set-up: method as in ref [67] (a number printed in a supplementary file, which may have a reference list of its own: not looked up in the article's list); conditions: ABL1, FL, Table S4; ref [67]; cited from earlier work
GRB2-1 SH3 domain = conditions: Table S4, cited from earlier work
Protocol: as §1

CRK-1 SH3 domain [1] = target: CRK-1 SH3 domain; set-up: method as in ref [71] (a number printed in a supplementary file, which may have a reference list of its own: not looked up in the article's list); conditions: CRK-1, SPR, Table S4; ref [71]; cited from earlier work
GRB2-2 SH3 domain = conditions: Table S4, cited from earlier work
Protocol: as §1

FYN SH3 domain = target: FYN SH3 domain; set-up: method as in ref [73] (a number printed in a supplementary file, which may have a reference list of its own: not looked up in the article's list); conditions: HSQC, Table S4, ref [73], cited from earlier work
STAC2 SH3 domain = conditions: STAC2, ITC, Table S4; ref [59]; cited from earlier work
Protocol: as §1

NCK1-3 SH3 domain = conditions: NCK1-3, HSQC, Table S4; ref [64]; cited from earlier work
Protocol: page 6: […][…] […] PAK2 […] PXXXPR PXXXPR 1.05 ITC [34] TRSVI ITSN1-2 Synthetic […] Exceptional [W/F][R/W]xSx[A/ 53 ITC [29] peptide G][F/Y][L/V]xGP[ W/L] NCK1-2 N-WASP GP[…] … 147 HSQC [64] VA[…] 199 PLCG1 SOS1 AAPV[…] … 0.20mM SPR [75] AADS[…] 0.40mM AAES[…] 0.70mM AAIA[…] 0.28mM BAIAP2L1 EspFUR45 IPP[…] … 0.5 nM ITC [76] (IRTKS) 9 SORBS2- Synthetic […] Exceptional XRXGXAYLXYVX 38 ITC [29] 1 peptide Synthetic RL[…](L/P) ...

CRK-1 SH3 domain [2] = target: CRK-1 SH3 domain; set-up: method as in 3 sources, one per row (each row's own in cited_ref): ref [15] (a number printed in a supplementary file, which may have a reference list of its own: not looked up in the article's list) ||| ref [69] (a number printed in a supplementary file, which may have a reference list of its own: not looked up in the article's list) ||| ref [17] (a number printed in a supplementary file, which may have a reference list of its own: not looked up in the article's list); conditions: CRK-1, FL, Table S4, cited from earlier work
[3] = target: NCF1-2 (p47phox) SH3 domain; set-up: method as in ref [14] (a number printed in a supplementary file, which may have a reference list of its own: not looked up in the article's list); conditions: FL, Table S4, ref [14]; cited from earlier work

In the case of AADSPPAIPPRQPT [published SOS1 peptide], the Kd (PLCG1 SH3 domain) is given as 0.4 µM.

In the case of AAESPPLLPPREPV [published SOS1 peptide], the Kd (PLCG1 SH3 domain) is listed as 0.7 µM.

For AAIAGPPVPPRQST [published SOS1 peptide], the Kd (PLCG1 SH3 domain) is given as 0.28 µM.

For AAPVPPPVPPRRRP [published SOS1 peptide], the Kd (PLCG1 SH3 domain) is given as 0.2 µM.

For APPLPPRNRPRL [published peptide APP12], the Kd (SRC SH3 domain; Table S4, ref [23]) is listed as 1.2 µM.

In the case of APPPPPPSRGG [published N-WASP peptide], the Kd (NCK1-1 SH3 domain) is listed as greater than 1000 µM.

In the case of APSIDRSTKPP [published SLP-76 peptide], the Kd (GRAP2-2 SH3 domain; ref [55]) is listed as 0.675 µM.

In the case of APSYSPPPPP, the Kd (ABL1 SH3 domain) is given as 1.5 µM.

For APTYPPPAPP, the Kd (ABL1 SH3 domain) is listed as 5 µM.

For APTYSPPPPP, the Kd (ABL1 SH3 domain) is given as 0.4 µM.

For DSPPAIPPRQPT [published SOS1 peptide], the Kd (GRB2-1 SH3 domain; GRB2-1, ITC, ref [79]) is given as 55 µM.

In the case of “DVADVPPPLPLKGSVADYGNLMENQDLLGSPTPPPPPPHQRHLPPPLPSKT [published DOCK180 peptide]”, the Kd (CRK-1 SH3 domain [1]) is listed as 0.35 µM.

For ESPPLLPPREPV [published SOS1 peptide], the Kd (GRB2-1 SH3 domain; GRB2-1, ITC, ref [79]) is listed as 117 µM.

For IAGPPVPPRQST [published SOS1 peptide], the Kd (GRB2-1 SH3 domain; GRB2-1, ITC, ref [79]) is listed as 82 µM.

In the case of “IQPPPVNRNLKPDRK [published Gab2b peptide]”, the Kd (GRB2-2 SH3 domain; GRB2-2, ITC, ref [48]) is listed as 17.4 µM.

For “KRISPPTPKPRPPR [published PI3K-p85a peptide]”, the Kd (FYN SH3 domain; unit mM in the cell) is given as 0.003 mM.

For LRRQAPPPPPPS [published N-WASP peptide], the Kd (NCK1-1 SH3 domain) is given as greater than 1000 µM.

In the case of “NENEDKSPYPNPETTGEEDEEEPEMPVGPRPRPLSELHLKEKAVPMPE [published CaV1.2 peptide]”, the Kd (STAC2 SH3 domain) is given as 19.3 µM.

For NRMYPPPPPALP [published N-WASP peptide], the Kd (NCK1-3 SH3 domain) is given as greater than 1 µM.

In the case of “PAPSIDRSTKPPL [published SLP-76 peptide]”, the Kd (GRAP2-2 SH3 domain; ref [55]) is listed as 0.181 µM and the Kd (GRB2-2 SH3 domain; GRB2-2, ITC, ref [55]) is listed as 9.7 µM.

For PGPPPPPGLPSD [published N-WASP peptide], the Kd (NCK1-3 SH3 domain) is given as greater than 1 µM.

In the case of PKLPPKTYKREH [published SOS1 peptide], the Kd (GRB2-2 SH3 domain; GRB2-2, NMR, ref [47]) is listed as 156 µM.

For PKPLPRFPKK [published SOS1 peptide], the Kd (GRB2-1 SH3 domain; GRB2-1, NMR, ref [47]) is given as 250 µM.

For PPPALPPKKR [published C3G peptide], the Kd (GRB2-1 SH3 domain; GRB2-1, FL, ref [15]) is given as 142 µM, the Kd (CRK-1 SH3 domain [2]; ref [15]) is given as 1.9 µM and the Kd (CRK-1 SH3 domain [2]; ref [69]) is given as 1.89 µM.

In the case of PPPVPPRRRR [published SOS1 peptide], the Kd (GRB2-1 SH3 domain; GRB2-1, FL, ref [15]) is listed as 3.5 µM and the Kd (CRK-1 SH3 domain [2]; ref [15]) is listed as 5.2 µM.

In the case of “PPRPLPVAPGSSKA [published PI3K-p85a peptide]”, the Kd (FYN SH3 domain) is listed as 0.05 mM.

In the case of “PPRPTPVAPGSSKA [published PI3K-p85a peptide]”, the Kd (FYN SH3 domain) is given as 0.3 mM.

In the case of PSIDRSTKP [published SLP-76 peptide], the Kd (GRAP2-2 SH3 domain; ref [57]) is given as 30 µM.

In the case of PSPHGTRRHLPSPP [published SOS1 peptide], the Kd (GRB2-1 SH3 domain; GRB2-1, NMR, ref [47]) is listed as 208 µM.

For PVPPPVPPRRRP [published SOS1 peptide], the Kd (GRB2-1 SH3 domain; GRB2-1, ITC, ref [78]) is listed as 38.6 µM, the Kd (GRB2-1 SH3 domain; GRB2-1, NMR, ref [47]) is listed as 37 µM and the Kd (GRB2-2 SH3 domain; GRB2-2, ITC, ref [78]) is listed as 117 µM. For the same sequence, the Kd (GRB2-2 SH3 domain; GRB2-2, NMR, ref [47]) was 142 µM.

In the case of “QPPSNPPPRPPAEAR [published p22phox peptide]”, the Kd [3] is listed as 8.67 µM.

In the case of “QPPSNPPPRPPAEARKKPSE [published p22phox peptide]”, the Kd [3] is given as 0.64 µM.

In the case of “RALPPLPRY [published synthetic peptide (SRC ligand)]”, the Kd (SRC SH3 domain; Table S4, ref [62]) is given as 7.8 µM.

In the case of RAPTMPPPLPP [published 3BP-1 peptide], the Kd (ABL1 SH3 domain) is listed as 34 µM.

In the case of “SAPSGPPPPPPSVL [published N-WASP peptide]”, the Kd (NCK1-1 SH3 domain) is listed as greater than 1000 µM and the Kd (NCK1-3 SH3 domain) is listed as greater than 1 µM.

In the case of “SLPGPLTPVAEGQEIGMNTETSGTSAREKELSPPPGLPSKIGSISRQSSL [published ST12 peptide]”, the Kd (CRK-1 SH3 domain [1]) is listed as 0.91 µM.

In the case of TAAPPPPPPSRP [published N-WASP peptide], the Kd (NCK1-1 SH3 domain) is given as greater than 1000 µM.

In the case of “VAPPPPPPPPPPPG [published N-WASP peptide]”, the Kd (NCK1-3 SH3 domain) is listed as greater than 1 µM.

In the case of VPPPVPPRRR [published SOS1 peptide], the Kd (GRB2-1 SH3 domain; GRB2-1, FL, ref [77]) is listed as 5.6 µM.

For VSLARRPLPPLP [published peptide VSL12], the Kd (SRC SH3 domain; Table S4, ref [23]) is given as 0.45 µM.

For YEVPPPVPPRRR [published SOS1 peptide], the Kd (GRB2-1 SH3 domain; GRB2-1, FL, ref [17]) is given as 5 µM, the Kd (CRK-1 SH3 domain [2]; ref [17]) is given as 6 µM and the Kd (SRC SH3 domain; Table S4, ref [17]) is given as 25 µM.
